Measurements published in PubChem BioAssay (NCI).
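48-hour exposure; five concentrations; linearly interpolated endpoints. GI50 marks 50% less growth. TGI is the concentration that stops growth completely.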

Assays:
Assay in all cases: growth of human tumour cells (NCI), 48 h
MCF7 breast = system: MCF7 breast
TK-10 renal = system: TK-10 renal
SK-OV-3 ovarian = system: SK-OV-3 ovarian
MDA-MB-435 = system: MDA-MB-435
HCC-2998 colon = system: HCC-2998 colon
ACHN renal = system: ACHN renal
SR leukemia = system: SR leukemia
SW-620 colon = system: SW-620 colon
NCI-H460 lung = system: NCI-H460 lung
HOP-92 NSCLC = system: HOP-92 NSCLC
SK-MEL-28 melanoma = system: SK-MEL-28 melanoma
OVCAR-5 ovarian = system: OVCAR-5 ovarian
MDA-MB-231 breast = system: MDA-MB-231 breast
SN12C renal = system: SN12C renal
HCT-116 colon = system: HCT-116 colon
SF-539 CNS = system: SF-539 CNS
EKVX NSCLC = system: EKVX NSCLC
SF-295 CNS = system: SF-295 CNS
NCI-H226 lung = system: NCI-H226 lung
DU-145 prostate = system: DU-145 prostate
LOX IMVI melanoma = system: LOX IMVI melanoma
SF-268 CNS = system: SF-268 CNS
NCI-H522 lung = system: NCI-H522 lung
OVCAR-8 ovarian = system: OVCAR-8 ovarian
MALME-3M melanoma = system: MALME-3M melanoma
IGROV1 ovarian = system: IGROV1 ovarian
PC-3 prostate = system: PC-3 prostate
NCI/ADR-RES ovarian = system: NCI/ADR-RES ovarian
SNB-19 CNS = system: SNB-19 CNS
HL-60(TB) leukemia = system: HL-60(TB) leukemia
UACC-62 melanoma = system: UACC-62 melanoma
OVCAR-4 ovarian = system: OVCAR-4 ovarian
CCRF-CEM leukemia = system: CCRF-CEM leukemia
SNB-75 CNS = system: SNB-75 CNS
SK-MEL-5 melanoma = system: SK-MEL-5 melanoma
HOP-62 NSCLC = system: HOP-62 NSCLC
T-47D breast = system: T-47D breast
HS 578T breast = system: HS 578T breast
HT29 colon = system: HT29 colon
A549 NSCLC = system: A549 NSCLC
RXF 393 renal = system: RXF 393 renal
M14 melanoma = system: M14 melanoma
MOLT-4 leukemia = system: MOLT-4 leukemia
HCT-15 colon = system: HCT-15 colon
A498 renal = system: A498 renal
NCI-H23 lung = system: NCI-H23 lung
UO-31 renal = system: UO-31 renal
KM12 colon = system: KM12 colon
COLO 205 colon = system: COLO 205 colon
OVCAR-3 ovarian = system: OVCAR-3 ovarian
786-0 renal = system: 786-0 renal
UACC-257 melanoma = system: UACC-257 melanoma

## OCCCc1n(Cc2ccc3ccccc3c2)c2ccccc2[n+]1Cc1ccc2ccccc2c1
MCF7 breast
  GI50: 1700 nM
  TGI: 3670 nM
TK-10 renal
  GI50: 1950 nM
  TGI: 4740 nM
SK-OV-3 ovarian
  GI50: 2870 nM
  TGI: 13600 nM
MDA-MB-435
  GI50: 1220 nM
  TGI: 2710 nM
HCC-2998 colon
  GI50: 1650 nM
  TGI: 3250 nM
ACHN renal
  GI50: 12500 nM
  TGI: 28000 nM
SR leukemia
  GI50: 1160 nM
  TGI: 3780 nM
SW-620 colon
  GI50: 1460 nM
  TGI: 3220 nM
NCI-H460 lung
  GI50: 2430 nM
  TGI: 9570 nM
HOP-92 NSCLC
  GI50: 567 nM
  TGI: 3100 nM
SK-MEL-28 melanoma
  GI50: 1220 nM
  TGI: 2880 nM
OVCAR-5 ovarian
  GI50: 1980 nM
  TGI: 7170 nM
MDA-MB-231 breast
  GI50: 1320 nM
  TGI: 2780 nM
SN12C renal
  GI50: 1850 nM
  TGI: 10200 nM
HCT-116 colon
  GI50: 1050 nM
  TGI: 2590 nM
SF-539 CNS
  GI50: 2010 nM
  TGI: 6510 nM
EKVX NSCLC
  GI50: 3680 nM
  TGI: 19400 nM
SF-295 CNS
  GI50: 2640 nM
  TGI: 11300 nM
NCI-H226 lung
  GI50: 2230 nM
  TGI: 10500 nM
DU-145 prostate
  GI50: 3520 nM
  TGI: 14200 nM
LOX IMVI melanoma
  GI50: 1340 nM
  TGI: 2680 nM
SF-268 CNS
  GI50: 1810 nM
  TGI: 4560 nM
NCI-H522 lung
  GI50: 1050 nM
  TGI: 3950 nM
OVCAR-8 ovarian
  GI50: 2670 nM
  TGI: 14000 nM
MALME-3M melanoma
  GI50: 1280 nM
  TGI: 2820 nM
IGROV1 ovarian
  GI50: 800 nM
  TGI: 2480 nM
PC-3 prostate
  GI50: 1740 nM
  TGI: 11100 nM
NCI/ADR-RES ovarian
  GI50: 27000 nM
  TGI: > 100000 nM
SNB-19 CNS
  GI50: 1270 nM
  TGI: 2850 nM
HL-60(TB) leukemia
  GI50: 507 nM
  TGI: 2360 nM
UACC-62 melanoma
  GI50: 666 nM
  TGI: 2090 nM
OVCAR-4 ovarian
  GI50: 670 nM
  TGI: 6730 nM
CCRF-CEM leukemia
  GI50: 1990 nM
  TGI: 5650 nM
SNB-75 CNS
  GI50: 1590 nM
  TGI: 4970 nM
SK-MEL-5 melanoma
  GI50: 1110 nM
  TGI: 2320 nM
HOP-62 NSCLC
  GI50: 2320 nM
  TGI: 11600 nM
T-47D breast
  GI50: 615 nM
  TGI: 6820 nM
HS 578T breast
  GI50: 2150 nM
  TGI: 7960 nM
HT29 colon
  GI50: 1020 nM
  TGI: 4170 nM
A549 NSCLC
  GI50: 6970 nM
  TGI: 31400 nM
RXF 393 renal
  GI50: 1500 nM
  TGI: 3830 nM
M14 melanoma
  GI50: 1330 nM
  TGI: 3560 nM
MOLT-4 leukemia
  GI50: 1880 nM
  TGI: 5240 nM
HCT-15 colon
  GI50: 11200 nM
  TGI: 24800 nM
A498 renal
  GI50: 1380 nM
  TGI: 5180 nM
NCI-H23 lung
  GI50: 1650 nM
  TGI: 8170 nM
UO-31 renal
  GI50: 10400 nM
  TGI: 25300 nM
KM12 colon
  GI50: 1400 nM
  TGI: 3080 nM
COLO 205 colon
  GI50: 838 nM
  TGI: 2530 nM
OVCAR-3 ovarian
  GI50: 1070 nM
  TGI: 2810 nM
786-0 renal
  GI50: 2090 nM
  TGI: 4740 nM
UACC-257 melanoma
  GI50: 1180 nM
  TGI: 3250 nM
